Experimental data taken from US4670419A, “Pharmaceutical composition and its rectal use” (Takeda Chemical Industries, Ltd., priority 1982, dated 1987).

How the values were obtained:
in vivo [1] = details: female, SD, rat, iv, 100 ug/kg
Method: (§1) SD-strain mature female rats (weighing about 270 g, 14 to 18 weeks old, in groups of 4 to 5 individuals) at diestrus as selected by the vaginal smear test covering a period of at least one week are anesthetized with pentobarbital and phenobarbital at 8-11 a.m., and a solution prepared by dissolving 500 μg of TAP-144 and 20 mg (2%), 50 mg (5%) or 100 mg (10%) of α-cyclodextrin in physiological saline in an amount to make 1 ml is administered into the vagina with about 12 mg of cotton soaked therewith at the dose level of 0.2 ml/kg (corresponding 100 μg/kg of TAP-144).

in vivo [2] = details: rat, 100 ug/kg, Concentration in Serum
Method: In 0.1 ml of physiological saline are dissolved 100 μg of TAP-144 and 5 mg of α-cyclodextrin, and in the manner of Experimental Example 1, the 0.1 ml/kg equivalent of the solution is administered into the nasal cavity (the dose of TAP-144: 100 μg/kg).

[3] = rat, in vivo
Method: as §1

- level at 5 min (in vivo [1]): 212 ng/mL
- level at 10 min (in vivo [1]): 173 ng/mL
- level at 0.5 h (in vivo [1]): 74.2 ng/mL
- level at 1 h (in vivo [1]): 39.3 ng/mL
- level at 2 h (in vivo [1]): 6.76 ng/mL
- level at 4 h (in vivo [1]): 1.83 ng/mL
- level at 6 h (in vivo [1]): < 0.13 ng/mL
- level at 0.5 h (in vivo [2]; SD (Sprague-Dawley), sc): 44 ng/mL
- level at 1 h (in vivo [2]; SD (Sprague-Dawley), sc): 40.2 ng/mL
- level at 2 h (in vivo [2]; SD (Sprague-Dawley), sc): 24 ng/mL
- level at 4 h (in vivo [2]; SD (Sprague-Dawley), sc): 6.7 ng/mL
- level at 0.5 h (in vivo [2]; SD, inhaled or intranasal): 3.2 ng/mL
- level at 4 h (in vivo [2]; SD, inhaled or intranasal): 3.9 ng/mL
- promotion of vaginal absorption as compared with the control vaginal preparation [3]: about 6 times
- Concentration of TAP-144 in serum ([3]; 100 ug/kg, 0.5 h): 32.1 ng/mL
Compound: CCNC(=O)[C@@H]1CCCN1C(=O)[C@H](CCCNC(=N)N)NC(=O)[C@H](CC(C)C)NC(=O)[C@@H](CC(C)C)NC(=O)[C@H](Cc1ccc(O)cc1)NC(=O)[C@H](CO)NC(=O)[C@H](Cc1c[nH]c2ccccc12)NC(=O)[C@H](Cc1c[nH]cn1)NC(=O)[C@@H]1CCC(=O)N1 [TAP-144]
